Active and inactive are the calls of the source.
Assays:
[1] = test system: U-937; experiment: Antiproliferative activity against human U-937 cells assessed as inhibition of cell growth incubated for 2 days by CCK8 assay; type: functional, cell-based; conditions: time 2.0 day
[2] = target: T1, Protein cereblon/Tyrosine-protein kinase ABL1/Breakpoint cluster region protein (Homo sapiens, UniProt P00519+P11274+Q96SW2); experiment: Protac activity at CRBN/BCR-ABL in human K562 cells assessed as increase in BCR-ABL degradation incubated for 16 hrs by Western blotting analysis; type: cell-based
Target sequence in this assay (P00519 whole entry): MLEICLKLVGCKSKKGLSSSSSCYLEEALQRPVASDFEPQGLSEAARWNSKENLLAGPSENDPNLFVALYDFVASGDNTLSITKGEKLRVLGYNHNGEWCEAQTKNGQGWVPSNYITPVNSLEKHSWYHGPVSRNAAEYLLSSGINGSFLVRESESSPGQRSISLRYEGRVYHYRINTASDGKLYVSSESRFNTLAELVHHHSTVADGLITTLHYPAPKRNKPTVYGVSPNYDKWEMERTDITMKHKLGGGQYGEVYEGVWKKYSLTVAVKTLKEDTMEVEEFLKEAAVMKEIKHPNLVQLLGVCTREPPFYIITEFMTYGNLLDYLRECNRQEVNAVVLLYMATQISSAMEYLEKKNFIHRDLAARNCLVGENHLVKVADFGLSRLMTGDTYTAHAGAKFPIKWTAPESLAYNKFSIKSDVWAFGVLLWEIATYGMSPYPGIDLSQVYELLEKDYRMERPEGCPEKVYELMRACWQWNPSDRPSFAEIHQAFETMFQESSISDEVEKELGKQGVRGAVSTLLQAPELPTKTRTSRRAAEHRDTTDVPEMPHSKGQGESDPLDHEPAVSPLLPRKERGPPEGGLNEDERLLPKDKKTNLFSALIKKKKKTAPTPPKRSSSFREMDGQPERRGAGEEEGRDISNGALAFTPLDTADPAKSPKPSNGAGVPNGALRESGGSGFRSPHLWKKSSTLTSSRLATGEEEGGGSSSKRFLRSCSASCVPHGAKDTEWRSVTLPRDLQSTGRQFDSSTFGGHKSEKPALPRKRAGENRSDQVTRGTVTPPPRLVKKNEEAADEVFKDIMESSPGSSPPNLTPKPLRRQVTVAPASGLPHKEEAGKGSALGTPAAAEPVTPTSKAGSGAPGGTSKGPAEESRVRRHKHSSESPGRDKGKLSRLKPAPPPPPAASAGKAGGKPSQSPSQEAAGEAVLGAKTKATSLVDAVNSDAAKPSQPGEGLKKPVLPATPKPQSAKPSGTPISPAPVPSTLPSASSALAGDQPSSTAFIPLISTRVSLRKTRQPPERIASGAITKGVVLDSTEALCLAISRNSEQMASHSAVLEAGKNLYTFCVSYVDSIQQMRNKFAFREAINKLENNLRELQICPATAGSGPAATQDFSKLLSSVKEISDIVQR
Target sequence in this assay (P11274 whole entry): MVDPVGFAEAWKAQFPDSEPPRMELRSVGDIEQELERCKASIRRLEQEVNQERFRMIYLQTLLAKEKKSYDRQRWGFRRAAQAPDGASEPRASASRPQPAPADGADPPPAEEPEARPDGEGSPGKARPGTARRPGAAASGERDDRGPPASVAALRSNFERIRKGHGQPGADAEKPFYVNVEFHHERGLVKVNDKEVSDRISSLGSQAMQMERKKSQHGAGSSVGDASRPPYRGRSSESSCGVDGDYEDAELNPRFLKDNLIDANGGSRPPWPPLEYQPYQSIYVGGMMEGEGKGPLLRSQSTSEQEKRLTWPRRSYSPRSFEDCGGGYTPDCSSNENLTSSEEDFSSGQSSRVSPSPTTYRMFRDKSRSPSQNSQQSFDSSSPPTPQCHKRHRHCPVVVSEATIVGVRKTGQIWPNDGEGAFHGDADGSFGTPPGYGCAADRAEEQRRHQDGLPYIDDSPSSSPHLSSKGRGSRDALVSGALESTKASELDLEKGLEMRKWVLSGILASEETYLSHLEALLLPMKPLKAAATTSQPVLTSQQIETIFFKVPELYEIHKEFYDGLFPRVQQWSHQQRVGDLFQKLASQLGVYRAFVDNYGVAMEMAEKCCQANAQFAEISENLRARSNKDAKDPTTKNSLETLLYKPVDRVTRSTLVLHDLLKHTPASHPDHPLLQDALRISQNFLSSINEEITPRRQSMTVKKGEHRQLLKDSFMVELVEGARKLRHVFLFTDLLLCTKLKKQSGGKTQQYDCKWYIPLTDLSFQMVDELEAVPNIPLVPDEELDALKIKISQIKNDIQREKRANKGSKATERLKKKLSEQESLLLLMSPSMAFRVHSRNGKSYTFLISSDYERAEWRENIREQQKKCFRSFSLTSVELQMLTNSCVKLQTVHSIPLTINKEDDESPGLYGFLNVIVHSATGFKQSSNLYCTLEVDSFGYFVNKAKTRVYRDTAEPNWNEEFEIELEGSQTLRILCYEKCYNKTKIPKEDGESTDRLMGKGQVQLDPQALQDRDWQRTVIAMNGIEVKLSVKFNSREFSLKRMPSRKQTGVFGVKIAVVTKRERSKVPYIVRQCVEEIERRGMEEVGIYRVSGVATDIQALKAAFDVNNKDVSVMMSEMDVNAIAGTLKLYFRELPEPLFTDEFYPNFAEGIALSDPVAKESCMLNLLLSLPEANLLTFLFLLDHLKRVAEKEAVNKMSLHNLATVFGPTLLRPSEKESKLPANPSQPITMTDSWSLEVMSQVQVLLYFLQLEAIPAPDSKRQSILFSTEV
Target sequence in this assay (Q96SW2 whole entry): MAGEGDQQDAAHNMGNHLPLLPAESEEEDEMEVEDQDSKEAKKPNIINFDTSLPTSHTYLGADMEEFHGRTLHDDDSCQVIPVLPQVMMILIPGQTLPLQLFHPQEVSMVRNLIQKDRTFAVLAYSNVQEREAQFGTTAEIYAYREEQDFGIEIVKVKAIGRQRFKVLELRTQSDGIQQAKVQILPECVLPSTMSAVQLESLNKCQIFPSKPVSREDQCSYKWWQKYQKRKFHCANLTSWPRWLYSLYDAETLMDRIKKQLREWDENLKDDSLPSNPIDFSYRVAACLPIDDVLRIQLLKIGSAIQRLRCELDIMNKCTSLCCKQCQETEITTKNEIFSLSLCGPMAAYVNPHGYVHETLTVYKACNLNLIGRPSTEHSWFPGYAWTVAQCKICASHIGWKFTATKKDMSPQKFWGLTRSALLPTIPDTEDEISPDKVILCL

[3] = target: T2, Signal transducer and activator of transcription 5A (Homo sapiens) (UniProt P42229); experiment: Inhibition of STAT5 phosphorylation at Tyr694 residue in human K562 cells at 0.3 to 100 nM incubated for 16 hrs by Western blotting analysis; type: cell-based; conditions: dose 0.3-100 nM
T2 sequence (whole entry): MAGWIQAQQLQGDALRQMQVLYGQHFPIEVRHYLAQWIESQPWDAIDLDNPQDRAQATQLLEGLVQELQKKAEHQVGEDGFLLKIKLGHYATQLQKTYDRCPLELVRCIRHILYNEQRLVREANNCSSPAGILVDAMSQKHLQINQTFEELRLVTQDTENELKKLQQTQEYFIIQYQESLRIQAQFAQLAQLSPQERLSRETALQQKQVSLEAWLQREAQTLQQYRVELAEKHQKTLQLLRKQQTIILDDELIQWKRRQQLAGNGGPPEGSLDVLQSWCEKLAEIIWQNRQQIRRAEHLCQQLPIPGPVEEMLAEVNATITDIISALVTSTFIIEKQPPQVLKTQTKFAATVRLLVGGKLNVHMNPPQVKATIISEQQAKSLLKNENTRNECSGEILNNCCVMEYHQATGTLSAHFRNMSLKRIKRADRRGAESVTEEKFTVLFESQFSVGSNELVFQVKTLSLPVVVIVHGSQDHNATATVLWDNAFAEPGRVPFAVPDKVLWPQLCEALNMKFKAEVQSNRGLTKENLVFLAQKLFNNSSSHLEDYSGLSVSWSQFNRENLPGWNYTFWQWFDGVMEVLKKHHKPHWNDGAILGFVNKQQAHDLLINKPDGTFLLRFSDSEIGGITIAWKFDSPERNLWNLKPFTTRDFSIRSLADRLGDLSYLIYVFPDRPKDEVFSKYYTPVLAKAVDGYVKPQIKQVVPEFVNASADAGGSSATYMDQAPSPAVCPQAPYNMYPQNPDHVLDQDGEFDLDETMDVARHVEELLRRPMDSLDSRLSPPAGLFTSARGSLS

[4] = target: Crk-like protein (Homo sapiens) (UniProt P46109); experiment: Inhibition of CRKL phosphorylation at Tyr207 residue in human K562 cells at 0.3 to 100 nM incubated for 16 hrs by Western blotting analysis; type: cell-based; conditions: dose 0.3-100 nM
[5] = target: T1, Protein cereblon/Tyrosine-protein kinase ABL1/Breakpoint cluster region protein; experiment: Protac activity at CRBN/BCR-ABL in human K562 cells assessed as BCR-ABL turnover rate in presence of cycloheximide by Western blotting analysis; type: cell-based
Target sequence in this assay (P00519 whole entry, looked up): as the sequence (P00519 whole entry) above
Target sequence in this assay (P11274 whole entry, looked up): as the sequence (P11274 whole entry) above
Target sequence in this assay (Q96SW2 whole entry, looked up): as the sequence (Q96SW2 whole entry) above

[6] = target: T1, Protein cereblon/Tyrosine-protein kinase ABL1/Breakpoint cluster region protein; experiment: Protac activity at CRBN/BCR-ABL in human K562 cells assessed as c-ABL turnover rate in presence of cycloheximide by Western blotting analysis; type: cell-based
Target sequence in this assay (P00519 whole entry, looked up): as the sequence (P00519 whole entry) above
Target sequence in this assay (P11274 whole entry, looked up): as the sequence (P11274 whole entry) above
Target sequence in this assay (Q96SW2 whole entry, looked up): as the sequence (Q96SW2 whole entry) above

[7] = target: T1, Protein cereblon/Tyrosine-protein kinase ABL1/Breakpoint cluster region protein; experiment: Protac activity at CRBN/BCR-ABL in human K562 cells assessed as induction of BCR-ABL degradation at 100 nM pretreated with lenalidomide for 2 hrs followed by compound addition measured after 8 hrs by Western blotting analysis; type: cell-based; conditions: time 10.0 hrs
Target sequence in this assay (P00519 whole entry, looked up): as the sequence (P00519 whole entry) above
Target sequence in this assay (P11274 whole entry, looked up): as the sequence (P11274 whole entry) above
Target sequence in this assay (Q96SW2 whole entry, looked up): as the sequence (Q96SW2 whole entry) above

[8] = target: T1, Protein cereblon/Tyrosine-protein kinase ABL1/Breakpoint cluster region protein; experiment: Protac activity at CRBN/BCR-ABL in human K562 cells assessed as induction of BCR-ABL degradation at 100 nM pretreated with MLN4924 for 2 hrs followed by compound addition measured after 8 hrs by Western blotting analysis; type: cell-based; conditions: time 10.0 hrs
Target sequence in this assay (P00519 whole entry, looked up): as the sequence (P00519 whole entry) above
Target sequence in this assay (P11274 whole entry, looked up): as the sequence (P11274 whole entry) above
Target sequence in this assay (Q96SW2 whole entry, looked up): as the sequence (Q96SW2 whole entry) above

[9] = target: T1, Protein cereblon/Tyrosine-protein kinase ABL1/Breakpoint cluster region protein; experiment: Protac activity at CRBN/BCR-ABL in human K562 cells assessed as induction of BCR-ABL degradation at 100 nM pretreated with MG132 for 2 hrs followed by compound addition measured after 8 hrs by Western blotting analysis; type: cell-based; conditions: time 10.0 hrs
Target sequence in this assay (P00519 whole entry, looked up): as the sequence (P00519 whole entry) above
Target sequence in this assay (P11274 whole entry, looked up): as the sequence (P11274 whole entry) above
Target sequence in this assay (Q96SW2 whole entry, looked up): as the sequence (Q96SW2 whole entry) above

[10] = target: T2, Signal transducer and activator of transcription 5A (Homo sapiens); experiment: Inhibition of STAT5 phosphorylation at Tyr694 residue in human K562 cells at 100 nM by Western blotting analysis; type: cell-based; conditions: time <= 18.0 hrs, TDE = time-dependent effect
[11] = target: T1, Protein cereblon/Tyrosine-protein kinase ABL1/Breakpoint cluster region protein; experiment: Protac activity at CRBN/BCR-ABL in human K562 cells assessed as increase in BCR-ABL degradation at 100 nM incubated for 6 hrs followed by compound washout measured after 4 hrs by Western blotting analysis; type: cell-based
Target sequence in this assay (P00519 whole entry, looked up): as the sequence (P00519 whole entry) above
Target sequence in this assay (P11274 whole entry, looked up): as the sequence (P11274 whole entry) above
Target sequence in this assay (Q96SW2 whole entry, looked up): as the sequence (Q96SW2 whole entry) above

[12] = target: T1, Protein cereblon/Tyrosine-protein kinase ABL1/Breakpoint cluster region protein; experiment: Protac activity at CRBN/BCR-ABL in human K562 cells assessed as increase in BCR-ABL degradation at 100 nM incubated for 6 hrs followed by compound washout measured upto 96 hrs by Western blotting analysis; type: cell-based
[13] = target: Crk-like protein (Homo sapiens) (UniProt P46109); experiment: Inhibition of CRKL phosphorylation at Tyr207 residue in human K562 cells at 100 nM incubated for 6 hrs followed by compound washout measured upto 96 hrs by Western blotting analysis; type: cell-based
[14] = test system: K562; experiment: Cytotoxicity against human K562 cells assessed as inhibition of cell growth at 100 nM incubated for 6 hrs followed by compound washout measured upto 96 hrs; type: functional, cell-based
[15] = test system: K562; experiment: Induction of cell death in human K562 cells assessed as inhibition of cell growth at 100 nM incubated for 6 hrs followed by compound washout measured upto 96 hrs; type: functional, cell-based
[16] = test system: K562; experiment: Down regulation of […] expression in human K562 cells at 100 nM measured after 16 hrs by LC-MS analysis; type: functional, cell-based
[17] = test system: K562; experiment: Down regulation of ZFP91 expression in human K562 cells at 100 nM measured after 16 hrs by LC-MS analysis; type: functional, cell-based
[18] = test system: Protein cereblon/Tyrosine-protein kinase ABL1/Breakpoint cluster region protein (Mus musculus), P00520+Q6PAJ1+Q8C7D2 [T315I]; experiment: Protac activity at CRBN/BCR-ABL T315I mutant in mouse 32D cells assessed as increase in BCR-ABL degradation at 1 to 1000 nM by Western blotting analysis; type: cell-based; conditions: dose 1-1000 nM
[19] = test system: Protein cereblon/Tyrosine-protein kinase ABL1/Breakpoint cluster region protein (Mus musculus), P00519+P11274+Q8C7D2 [T315M]; experiment: Protac activity at CRBN/asciminib resistance BCR-ABL T315M mutant in mouse 32D cells assessed as increase in BCR-ABL degradation at 1 to 1000 nM by Western blotting analysis; type: cell-based; conditions: dose 1-1000 nM
[20] = test system: Protein cereblon/Tyrosine-protein kinase ABL1/Breakpoint cluster region protein (Mus musculus), P00519+P11274+Q8C7D2 [F359V]; experiment: Protac activity at CRBN/asciminib resistance BCR-ABL F359V mutant in mouse 32D cells assessed as increase in BCR-ABL degradation at 1 to 1000 nM by Western blotting analysis; type: cell-based; conditions: dose 1-1000 nM
[21] = test system: Protein cereblon/Tyrosine-protein kinase ABL1/Breakpoint cluster region protein (Mus musculus), P00519+P11274+Q8C7D2 [G671R]; experiment: Protac activity at CRBN/asciminib resistance BCR-ABL G671R mutant in mouse 32D cells assessed as increase in BCR-ABL degradation at 1 to 1000 nM by Western blotting analysis; type: cell-based; conditions: dose 1-1000 nM

Crk-like protein (Homo sapiens), sequence (P46109 whole entry): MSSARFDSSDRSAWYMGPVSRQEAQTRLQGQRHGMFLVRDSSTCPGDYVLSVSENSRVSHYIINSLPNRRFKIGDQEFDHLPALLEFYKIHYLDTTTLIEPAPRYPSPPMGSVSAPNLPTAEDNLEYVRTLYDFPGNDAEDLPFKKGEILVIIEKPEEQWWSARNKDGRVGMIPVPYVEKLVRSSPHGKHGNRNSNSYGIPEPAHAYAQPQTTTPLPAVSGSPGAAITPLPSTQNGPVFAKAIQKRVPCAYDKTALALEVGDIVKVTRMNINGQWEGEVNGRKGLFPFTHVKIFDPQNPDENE

O=C1CCC(N2Cc3c(SCCCCCCN4CCN(C5CCN(c6ncc(C(=O)Nc7ccc(OC(F)(F)Cl)cc7)cc6-c6ccn[nH]6)CC5)CC4)cccc3C2=O)C(=O)N1 (stereo unspecified)
2.7 nM: DC50 [2]
inactive: Activity [1] | Activity [7] | Activity [8] | Activity [9] | Activity [11] | Activity [12] | inhibition [13]
active: inhibition [3] | inhibition [4] | Activity [5] | Activity [6] | inhibition [10] Tde | Activity [14] | Activity [15] | Activity [16] | Activity [17] | Activity [18] | Activity [19] | Activity [20] | Activity [21]

— ChEMBL document CHEMBL5247625, “Discovery and characterization of novel potent BCR-ABL degraders by conjugating allosteric inhibitor” (Eur J Med Chem, 2022)
